Assays:
rat GLP-1 receptor = target: T1, rat GLP-1 receptor (Rattus norvegicus, UniProt P32301); test: cAMP Assay (in vitro receptor binding assay) on membrane preparation; assay type: biochemical; conditions: cAMP production, CHO membranes expressing rat GLP-1 receptor; mean ± spread
T1 construct: expressed in transfected cells; host or cells: CHO DXB-11 (Chinese hamster ovary) cells, used as a membrane preparation
T1 sequence (P32301 22-463): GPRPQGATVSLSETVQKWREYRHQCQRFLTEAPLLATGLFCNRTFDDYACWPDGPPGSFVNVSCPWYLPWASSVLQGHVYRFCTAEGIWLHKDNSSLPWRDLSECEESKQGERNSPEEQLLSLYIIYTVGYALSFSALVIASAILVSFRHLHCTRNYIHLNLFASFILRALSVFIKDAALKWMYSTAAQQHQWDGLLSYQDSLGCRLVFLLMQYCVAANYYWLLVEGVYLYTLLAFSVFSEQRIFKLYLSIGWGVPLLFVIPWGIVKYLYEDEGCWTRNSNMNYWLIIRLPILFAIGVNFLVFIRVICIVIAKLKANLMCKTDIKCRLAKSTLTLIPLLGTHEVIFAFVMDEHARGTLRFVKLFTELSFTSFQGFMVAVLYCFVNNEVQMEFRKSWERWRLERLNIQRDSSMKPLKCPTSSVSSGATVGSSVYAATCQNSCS
Protocol: A sample of the membrane preparation was preincubated with a test compound or a control compound in buffer (25 mM HEPES, 0.2% (w/v) BSA, pH 7.6) at 32° C. for 10 minutes. Reaction buffer (final concentration: 25 mM HEPES, 0.2% (w/v) BSA, 2.6 mM Mg, 0.8 mMATP, 0.1 mM GTP, 5 mM creatine phosphate, creatine kinase 50 U/ml, 0.2 mM IBMX, pH 7.6) was added and incubated for an additional 30 minutes. Incubations were stopped by adding 10 mM EDTA.
Production of cAMP was assayed using a fluorescent tracer-immuno assay method. In brief, after the incubation was stopped, fluorescent tracer (cAMP-b phycoerythrin conjugate) was added followed by the addition of affinity purified anti-cAMP rabbit antiserum. After incubation at room temperature for 45 minutes, anti-rabbit IgG coated assay beads were added and incubated for an additional 15 minutes. Plates were then evacuated and read on a Pandex PFCIA reader.
Fluorescent intensity values were correlated to rate of cAMP production (pmol/min/mg).

beagles [1] = test: Dog S.C. Hyperglycemic (150 mg/dl) Clamp Test; assay type: in vivo; conditions: S.C. 10 μg/kg
Protocol: (§1) a) Hyperglycemic Clamp Studies
(§2) Experiments were conducted in overnight-fasted, conscious, adult (1-2 years of age) male and female beagles weighing 8-15 kg. At least ten days prior to the study, animals were anesthetized with isoflurane, and a cut-down was made in the left or right inguinal region. Silastic catheters were inserted into the femoral artery and the proximal caudal femoral vein and secured with 4-0 silk suture. The free ends of the catheters were passed subcutaneously to the back using a trocar needle. The catheters were then filled with a glycerol/heparin solution (3:1, v/v; final heparin concentration of 250 KIU/ml), and the free ends were knotted and placed in a subcutaneous pocket to allow complete closure of the skin. Keflex® was administered both pre-operatively (20 mg/kg, IV and 20 mg/kg, I.M.) and post-operatively (250 mg, p.o. once daily for seven days) to prevent infections. Torbugesic (1.5 mg/kg, I.M.) was administered post-operativelyto control pain.
(§3) Blood was drawn just prior to the study day to determine the health of the animal. Only animals with hematocrits above 38% and leukocyte counts below 16,000/mm^3 were used.
(§4) The afternoon before the experiment, the free ends of the catheters were exteriorized from the subcutaneous pocket through a small incision made under local anesthesia (2% lidocaine), and the dog was fitted with a tether system jacket and collar assembly.
(§5) The morning of the experiment, the contents of the catheters were aspirated, the catheters were flushed with saline, and extension lines (protected by a stainless steel tether) were attached to the catheters. On mornings of IV injection experiments, an over-the-needle, teflon catheter was inserted percutaneously into a cephalic vein in preparation for the administration of an IV bolus of test substance. The dog was placed in a metabolic cage, and the catheter extension lines and tether were attached to a swivel system to allow the dog to move freely about the cage. At this time (-60 minutes), an exogenous infusion of glucose (50% w/v in water) was begun through the chronic venous catheter. Glucose was infused in a descending stepwise fashion over the first six minutes of the study to rapidly raise the plasma glucose concentration to 150 mg/dl. Plasma glucose concentrations were determined every 2.5 to 7.5 minutes throughout the remainder of the study, and the glucose infusion rate was adjusted appropriately to maintain the plasma glucose concentration at 150 mg/dl.
(§6) Sixty minutes after the start of the glucose infusion (time 0), test substance was administered either intravenously (1.0, 2.9, 5.0 or 10.0 μg/kg; dose dissolved in 2 ml of saline containing 0.3% dog albumin, w/v) through the previously inserted teflon catheter or subcutaneously (10 μg/kg; 150 μM in phosphate buffered saline) in the dorsal aspect of the neck.
(§7) Arterial blood samples (3.5 ml) were taken at -30, -15, 0, 2.5, 5, 7.5, 10, 12.5, 15, 20, 30, 45, 60, 75, 90, 105 and 120 minutes during the IV studies and at -30, -15, 0, 3, 6, 9, 12, 15, 20, 30, 45, 60, 75, 90, 105 and 120 minutes during the SC studies. Samples were collected in vacuum blood collection tubes containing disodium EDTA and immediately placed on ice. To prevent proteolytic cleavage of GLP-1(7-37) in the plasma samples, 1.5 ml of the EDTA containing blood were transferred to a polypropylene tube containing 40 μl of aprotinin (10,000 KIU/ml) and mixed well. The samples were centrifuged, and the resulting plasma was transferred to polypropylene test tubes and stored on ice for the duration of the study.
(§8) At the conclusion of the experiment, the animal was anesthetized (isoflurane); the catheters were flushed with fresh saline and filled with the glycerol/heparin mixture; the free ends of the catheters were knotted and placed subcutaneously as described earlier; and antibiotic was administered (300 mg Keflex®, I.M.). […]

beagles [2] = test: Dog I.V. Hyperglycemic (150 mg/dl) Clamp Test; assay type: in vivo; conditions: I.V. 1.0 μg/kg
Protocol: as §1, §2, §3, §4, §5, §6, §7, §8

[3] = system: Sprague Dawley or Zucker Diabetic Fatty rats; test: Rat IV Glucose (1 g/kg) Tolerance Test; assay type: in vivo; conditions: for Insulin Change AUC: 0-15 min
Protocol: a) Glucose Tolerance Tests
Experiments were conducted in overnight-fasted, conscious, male Sprague Dawley (Charles River) or Zucker Diabetic Fatty (Genetic Models, Inc.) rats weighing approximately 250 (Sprague Dawley rats) or 300 (Zucker Diabetic Fatty rats) grams. Four to five days prior the study, rats were anesthetized with isoflurane, and a polyethylene (PE50) catheter was inserted into the right jugular vein. The catheter was secured with a wound clip, filled with saline containing heparin (2% sodium heparin), and closed with a small stainless steel plug.
After a sixteen-hour fast, twelve chronically cannulated rats were separated into four groups of three rats per group. 0.4 ml of blood was taken from the tail vein, collected into a microtainer tube containing lithium heparin, and immediately placed on ice (zero minute sample). A glucose bolus (1.0 g/kg; 50% glucose (w/v) in water) was administered via the indwelling jugular cannula, and the cannula was rinsed with 200 μl of saline. Twenty seconds later a bolus of test substance 100 μl/100 g body weight of either vehicle (saline containing 0.3% (w/v) bovine serum albumin) or vehicle containing analog! was administered through the jugular cannula, and the cannula was rinsed as before. Rats were bled from the tail again at 2, 5, 10, 20 and 30 minutes after the administration of the glucose bolus, and the samples were treated as described above. At the end of the experiment, blood samples were centrifuged, and the plasma was collected.
Plasma glucose concentrations were determined the day of the experiment using a coupled hexokinase procedure in a clinical chemistry analyzer. Plasma for insulin determinations were diluted with zero calibrator and frozen at -20° C. until time for analysis. Insulin concentrations were determined using a commercial radioimmunoassay kit with rat insulin as the standard.
Insulin change (the change in insulin from the baseline value) was calculated as the difference between the insulin concentration at time t and the insulin concentration at zero time. The area under the insulin change curve was calculated using the trapezoidal rule. Plasma glucose change (the increase in plasma glucose above the baseline value) was calculated as the difference between the plasma glucose concentration at time t and the plasma glucose concentration at zero time. The area under the plasma glucose change curve was calculated using the trapezoidal rule. Values are listed as the mean ± the standard error of the mean (SEM).

[4] = 120 minute test period, mean ± SEM

For “N- Imidazole-α,α-dimethyl-acetyl!GLP-1 (8-37)OH [α,α-imidazoacetyl-GLP-1(8-37)OH]”, the “% Relative Potency” value (rat GLP-1 receptor) was 108.2 ± 22.4%.

With “Arg^26 -Lys^34 -N^ε -octanoyl-GLP-1(8-37)OH [Arg^26-Lys^34-N^ε-octanoyl-GLP-1(8-37)OH]” the “GIR Change AUC” value (beagles [1]; 0-120 min, mean ± SEM) was 659 ± 182 mg/kg, the “Insulin Change AUC” value (beagles [1]; 0-120 min, mean ± SEM) was 11 ± 26 ng·min/mL and the “Max Insulin Change” value (beagles [1]; [4]) was 0.6 ± 0.4 ng/mL. For the same substance, the “Duration of Insulin Effect” value (beagles [1]; time average insulin change consistently >0.5 ng/ml) was “not active”.

GLP-1(7-36)NH2 was tested, and the “GIR Change AUC” value (beagles [2]; 0-60 min, mean ± SEM) was 414 ± 73 mg/kg, the “Insulin Change AUC” value (beagles [2]; 0-60 min, mean ± SEM) was 32 ± 8 ng·min/mL and the “Max Insulin Change” value (beagles [2]; [4]) was 3.4 ± 0.6 ng/mL. For the same substance, the “Duration of Insulin Effect” value (beagles [2]; time average insulin change consistently ≥0.5 ng/ml) was 2.5 min, the “Insulin Change at 10 min” value ([3]; IV dose 0.2 mg/kg) was 1.8 ng/mL and the “Max Insulin Change” value ([3]; IV dose 0.2 mg/kg) was 4.0 ng/mL. The “Insulin Change AUC” value ([3]; IV dose 0.2 mg/kg) was 34 ± 4 ng·min/mL, the “Insulin Change at 10 min” value ([3]; IV dose 0.3 mg/kg) was 2.2 ng/mL and the “Max Insulin Change” value ([3]; IV dose 0.3 mg/kg) was 6.1 ng/mL. The “Insulin Change AUC” value ([3]; IV dose 0.3 mg/kg) was 50 ± 13 ng·min/mL, the “Insulin Change at 10 min” value ([3]; IV dose 0.4 mg/kg) was 3.8 ng/mL and the “Max Insulin Change” value ([3]; IV dose 0.4 mg/kg) was 7.7 ng/mL. The “Insulin Change AUC” value ([3]; IV dose 0.4 mg/kg) was 73 ± 14 ng·min/mL, the “Insulin Change at 10 min” value ([3]; IV dose 0.6 mg/kg) was 3.4 ng/mL and the “Max Insulin Change” value ([3]; IV dose 0.6 mg/kg) was 7.7 ng/mL. The “Insulin Change AUC” value ([3]; IV dose 0.6 mg/kg) was 67 ± 11 ng·min/mL, the “Insulin Change at 10 min” value ([3]; IV dose 0.8 mg/kg) was 4.1 ng/mL and the “Max Insulin Change” value ([3]; IV dose 0.8 mg/kg) was 11.3 ng/mL. The “Insulin Change AUC” value ([3]; IV dose 0.8 mg/kg) was 97 ± 25 ng·min/mL, the “Insulin Change at 10 min” value ([3]; IV dose 1.0 mg/kg) was 3.9 ng/mL and the “Max Insulin Change” value ([3]; IV dose 1.0 mg/kg) was 11.4 ng/mL. The “Insulin Change AUC” value ([3]; IV dose 1.0 mg/kg) was 89 ± 16 ng·min/mL, the “Insulin Change at 10 min” value ([3]; IV dose 2.0 mg/kg) was 4.9 ng/mL and the “Max Insulin Change” value ([3]; IV dose 2.0 mg/kg) was 11.7 ng/mL.

— patent US5512549A, “Glucagon-like insulinotropic peptide analogs, compositions, and methods of use” (Eli Lilly and Company, priority 1994, dated 1996)
